Legend:
[1] = tested on: C57 Blk/6 mice; assay: Y-maze testing of spatial memory in aged mice cohort (non-cholestatic cognitive decline); assay type: in vivo
Excerpt: FIG. 1 is an illustration of an aged mice cohort study plan.
FIG. 2 is a bar graph showing the results of Y-maze testing on aged mice treated with ursodeoxycholic acid (URSO), obeticholic acid (OCA), or control at 11 and 14 months, according to the cohort study plan in FIG. 1.
(§1) Cognitive impairment is a clinical issue with age-related cognitive decline being a substantial problem in society. C57 Blk/6 mice were aged to 9 months when they started either 6 months of Ursodeoxycholic acid or Obeticholic acid therapy or were left to age naturally to 15 months. Between 9 and 15 months of age mice develop progressive cognitive decline, by 15 months, with a novel arm time of one third indicating complete loss of short-term spatial memory (FIG. 2). Y-maze testing was repeated on the animals in each group at 11 and 14 months (FIG. 2; left bars and right bars respectively). […] The effect was not only behavioral.

[2] = tested on: C57 Blk/6 mice; assay: Immunofluorescence analysis of neurons and neural progenitors in aged mice; assay type: in vivo
Excerpt: FIG. 3 is a bar graph showing immunofluorescence analysis of aged mice treated with obeticholic acid (OCA), ursodeoxycholic acid (URSO), or no supplement (wild type or WT) ad libitum each at 15 months (15 mnth) vs. 9 months (9 mnth), according to the cohort study plan in FIG. 1.
as §1

[3] = preclinical data, given early in the disease course; cited from earlier work
[4] = longer-term experiments, aged mice

In the case of `CC[C@H]1[C@@H](O)[C@@H]2[C@H](CC[C@]3(C)[C@@H]([C@H](C)CCC(=O)O)CC[C@@H]23)[C@@]2(C)CC[C@@H](O)C[C@@H]12` [OCA, 3α,7α-dihydroxy-6α-ethyl-5β-cholan-24-oic acid], the “Y-maze spatial memory performance between ages 11 and 14 months” value ([1]; aged C57 Blk/6 mice, therapy started at 9 months, Y-maze at 11 and 14 months) is reported as “significantly improved”, the “non-cholestatic (age-related) cognitive decline, loss of short-term spatial memory” value ([1]; therapy given between 9 and 15 months of age in the diet) is reported as “completely abrogated” and the “SOX2+ neural progenitor population” value ([2]; compared to both aged matched groups, 15 months) is reported as “significant increase”. The “NeuN+ neuron count, neuron loss between 9 and 15 months” value ([2]; immunofluorescence, supplement from 9 to 15 months, fed ad lib) was “no significant neuron loss”, the neuronal precursors [2, 4] was “significant increase” and the “overall neuronal cell loss” value [2, 4] was “reversal”. For the same compound, the neurogenesis ([2]; wild-type (WT) mice, FIG. 3) was “significantly increases”, the neuronal loss ([2]; wild-type (WT) mice, FIG. 3) was “slows” and the “cognitive dysfunction in cholestasis (e.g., PBC)” value [3] was “reverse”.

Source: US20250375459A1, “METHODS FOR AMELIORATING COGNITIVE IMPAIRMENT USING BILE ACID DERIVATIVES” (INTERCEPT PHARMACEUTICALS, INC., priority 2022, published 2025)
